Where two headings read alike, the source gives them in different places. No end group written: not given here.
B1: NB—Pd: HER2 nanobody-HRGDH fusion complexed with Pd after incubation with Pd(OAc)2 at molar ratio 1:1 (conjugate)
VHH: QVQLQESGGGSVQAGGSLKLTCAASGYIFNSCGMGWYRQSPGRERELVSRISGDGDTWHKESVKGRFTISQDNVKKTLYLQMNSLKPEDTAVYFCAVCYNLETYWGQGTQVTVSSGGGGSHRGDHENLYFQSHHHHHH

Columns and labels:
[1] = test system: SK-BR-3 breast cancer cells; assay: Dose-response of paclitaxel versus paclitaxel prodrug in SK-BR-3 cells; assay type: cell-based; conditions: Homo sapiens, semilog dose-response
From the text: This vast drop of anticancer activity highlights the essential role of the C2′-OH of PTX for binding its target.

SK-BR-3 cells [2] = assay: Prodrug-into-drug conversion, extracellular, SK-BR-3; assay type: cell-based; conditions: for catalytic conversion of ProPTX into paclitaxel in cell culture: catalyst 1.4 μM + ProPTX 0.3 μM, SK-BR-3; for cell death: in combination with ProPTX 0.3 μM, SK-BR-3, 5 days, PrestoBlue
Procedure: Error bars: LSD from n=2. Significance was determined by one-way analysis of variance (ANOVA): ^nsP>0.05, *P<0.05.
Error bars: ±SD from n=3.
Extracellular conversion. […] The cells treated with PTX and ProPTX at 0.3 μM were used as positive and negative controls, respectively. After 5d, PrestoBlue cell viability reagent (10% v/v) was added to each well and the plate was incubated for 90 min. […] Experiments were performed in triplicates.
SK-BR-3 cells were seeded and incubated with a solution of Pd(OAc)2 or Pd-peptide (Pd-HRGDHC) in combination with either DMSO or ProPTX (0.3 μM). After 5 days, Presto blue cell viability reagent was added and fluorescence emission was detected using a multilabel plate reader.
After 5d, Presto blue cell viability reagent was added to each well and fluorescence emission was detected using a multilabel fluorescence reader.

[3] = Fluorogenic catalysis of ProRes in PBS versus serum (10% FBS in PBS); conditions: 37° C., 24 h
Procedure: (a) Catalytic deprotection of the propargylated dye (ProRes, 100 μM) occurs in the presence of either Pd(OAc)2 (Pd, 1.4 μM), or in the presence of NB-HRGDH-Pd (NB—Pd, 1.4 μM). The catalysis was performed at physiological conditions (pH 7.4, 37° C.) in PBS or in serum (10% FBS in PBS). The fluorescence measurements were normalised against the value of fluorescence after catalysis in PBS (100%) and corrected by the fluorescence of the product, Resorufin, in PBS and serum, respectively. (b) Scheme representing the catalysis of ProRes by NB—Pd in the presence of serum and the catalytic deactivation of Pd(OAc)2 by serum.
In solution. […] The mixtures were shaken at 700 rpm and 37° C. in a Thermomixer, and reactions were monitored after 24 h using a FLUOstar Omega multilabel reader (Ex/Em: 540/590 nm). […] The fluorescence measurements were normalised against the value of fluorescence after catalysis in PBS (100%) and corrected by the fluorescence of the product, Resorufin, in PBS and serum, respectively.
Pd(OAc)2 and Pd-peptide (Pd-HRGDHC) were incubated with the previously described sensor (ProRes) in PBS or in 10% FBS—PBS at 37° C. in a Thermomixer, and reactions were monitored after 24 h using a multilabel reader. Fluorescence increment was observed after catalysis. […]

SK-BR-3 cells [4] = conditions: read-out: EC50 (cell viability), SK-BR-3, day 5, PrestoBlue
Procedure: Dose-response curves of Pd (Pd(OAc)2) and Pd-peptide (HRGDHC-Pd) at different concentrations (100-1 μM) in HER2+ breast cancer cell line SK-BR-3. Cell viability was measured on day 5 using PrestoBlue reagent. Error bars: ±SD from n=3.
Cell viability was measured on day 5 using PrestoBlue reagent. Error bars: ±SD from n=3.
Cells were seeded in a 96-well plate format (at 2,000 cells per well) and incubated for 24 h before treatment. […] Untreated cells were incubated with DMSO (0.1% v/v). After 5d of incubation, cell viability was determined as described above. All conditions were normalised to the untreated cells (100%) and curves fitted using GraphPad Prism using a sigmoidal variable slope curve. Experiments were performed in triplicates.
Presto blue reagent was added to quantitatively measure viability by fluorescence detection and EC50 values were calculated by plotting dose-response curves.

[5] = Catalytic screening of metallopeptides (ProRes to resorufin fluorescence); conditions: Pd-peptides 10 μM, ProRes 100 μM, PBS, 37° C., 24 h
Procedure: Catalytic screening of metallopeptides. Metallopeptides, either mixed or as individual Pd-peptides (Pd-HRGDHC (SEQ ID NO: 6) or Pd-LLEYLKR (SEQ ID NO: 7) (10 μM) were incubated with Pd-labile off/on sensor O-propargyl-resorufin (ProRes)^2 (100 μM) in PBS (500 μL). The mixtures were shaken at 700 rpm and 37° C. in a Thermomixer and reactions were monitored after 24 h using a FLUOstar Omega multilabel reader (Ex/Em: 540/590 nm).

[6] = test system: HER2 negative cells MCF-7; assay: Prodrug-into-drug conversion, intracellular (1 h incubation, wash), MCF-7; assay type: cell-based; conditions: NB—Pd 1 h, washed, then ProPTX 0.3 μM, 5 days
Procedure: Cell viability was measured on day 5 using PrestoBlue reagent. Error bars: LSD from n=3. Significance was determined by one-way analysis of variance (ANOVA): ^nsP>0.05, *P<0.05, **P<0.01, ****P<0.0001.
Intracellular conversion. SK-BR-3 and MCF-7 cells were seeded in a 96-well plate format (at 2,000 cells per well) and incubated for 24 h before treatment. Each well was then replaced with a solution of NB—Pd (20 μg/mL, 1.4 μM) in culture media and incubated for 1 h. Cells were then washed with PBS and fresh media containing either DMSO (0.1% v/v) or ProPTX (0.3 μM) was added. The cells treated with PTX and ProPTX at 0.3 μM were used as positive and negative controls, respectively. After 5d, PrestoBlue cell viability reagent (10% v/v) was added to each well and the plate was incubated for 90 min. Fluorescence emission was detected using a FLUOstar Omega multilabel reader (Ex/Em: 540/590 nm). Experiments were performed in triplicates.
SK-BR-3 and MCF-7 cells (HER2 positive and negative respectively) were seeded and incubated with a solution of NB—Pd for 1 h. Cells were then washed with PBS and fresh media containing either DMSO or ProPTX (0.3 μM) was added. After 5 days, Presto blue cell viability reagent was added and fluorescence emission was detected. […] Results are to be found in FIG. 6.

Molecule | catalytic conversion of ProPTX into paclitaxel in cell culture (SK-BR-3 cells [2]) | catalytic activity (conversion of ProRes into fluorescent resorufin) [5] | cell death (SK-BR-3 cells [2]) | also measured
CC(=O)O[C@H]1C(=O)[C@@]2(C)[C@H]([C@H](OC(=O)c3ccccc3)[C@]3(O)C[C@H](OC(=O)[C@H](O)[C@@H](NC(=O)c4ccccc4)c4ccccc4)C(C)=C1C3(C)C)[C@]1(OC(C)=O)CO[C@@H]1C[C@@H]2O [PTX, paclitaxel] |  |  |  | EC50 [1]: 0.0018 µM
C1=C\CC/C=C\CC/1.[Cl][Pd][Cl] [Pd(Cod)Cl2, reference compound] | poor catalytic efficiency |  |  | 
CC(=O)[O-].CC(=O)[O-].[Pd+2] [Pd(OAc)2, reference compound] | Non-significant catalysis |  |  | catalytic activity in serum ([3]; 10% FBS-PBS): lost its catalytic properties; EC50 (SK-BR-3 cells [4]): 23 µM; EC50 (SK-BR-3 cells [4]; listed as Pd): 39 µM
HRGDHC-OH [Pd-peptide] | converting the prodrug | show catalytic activity | > 40% | catalytic activity in serum relative to catalytic activity in PBS ([3]; 10% FBS-PBS vs PBS): at least 18%
LLEYLKR (also: Pd complex) [reference compound] |  | does not show any catalytic activity |  | 
B1 |  |  | > 70% | effect on cell viability [6]: no effect

From patent US20260124315A1, “CATALYST AUGMENTED TARGET SPECIFIC POLYPEPTIDE” (TECHNISCHE UNIVERSITAT BERLIN, priority 2022, published 2026)
